Laboratory results published in paper PMC4579270, “Identification and Characterization of an Irreversible Inhibitor of CDK2” (Chemistry & Biology, 2015).
Where two headings read alike, the source gives them in different places.

Assays:
Assay in all cases: Dundee kinase screen re-test (standard format and 4 hour pre-incubation)
Format in all cases: biochemical
IRR = IRR (Homo sapiens, UniProt P14616)
Method in brief: (§1)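 Selectivity panel of 131 protein kinases, inhibitor tested at a single concentration of 1 µM; values are % kinase activity remaining, mean of duplicates. Re-test of selected kinases used 0.5 µM in the standard format and again after a 4 hour pre-incubation with the inhibitor.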

JNK3 = JNK3 (Homo sapiens, UniProt P53779); details: JNK3, 0.5µM
Method in brief: as §1

TAO1 = molecular target: T1, TAO1 (Homo sapiens, UniProt Q7L7X3); details: TAO1, 0.5µM
T1 sequence (Q7L7X3 1-1001): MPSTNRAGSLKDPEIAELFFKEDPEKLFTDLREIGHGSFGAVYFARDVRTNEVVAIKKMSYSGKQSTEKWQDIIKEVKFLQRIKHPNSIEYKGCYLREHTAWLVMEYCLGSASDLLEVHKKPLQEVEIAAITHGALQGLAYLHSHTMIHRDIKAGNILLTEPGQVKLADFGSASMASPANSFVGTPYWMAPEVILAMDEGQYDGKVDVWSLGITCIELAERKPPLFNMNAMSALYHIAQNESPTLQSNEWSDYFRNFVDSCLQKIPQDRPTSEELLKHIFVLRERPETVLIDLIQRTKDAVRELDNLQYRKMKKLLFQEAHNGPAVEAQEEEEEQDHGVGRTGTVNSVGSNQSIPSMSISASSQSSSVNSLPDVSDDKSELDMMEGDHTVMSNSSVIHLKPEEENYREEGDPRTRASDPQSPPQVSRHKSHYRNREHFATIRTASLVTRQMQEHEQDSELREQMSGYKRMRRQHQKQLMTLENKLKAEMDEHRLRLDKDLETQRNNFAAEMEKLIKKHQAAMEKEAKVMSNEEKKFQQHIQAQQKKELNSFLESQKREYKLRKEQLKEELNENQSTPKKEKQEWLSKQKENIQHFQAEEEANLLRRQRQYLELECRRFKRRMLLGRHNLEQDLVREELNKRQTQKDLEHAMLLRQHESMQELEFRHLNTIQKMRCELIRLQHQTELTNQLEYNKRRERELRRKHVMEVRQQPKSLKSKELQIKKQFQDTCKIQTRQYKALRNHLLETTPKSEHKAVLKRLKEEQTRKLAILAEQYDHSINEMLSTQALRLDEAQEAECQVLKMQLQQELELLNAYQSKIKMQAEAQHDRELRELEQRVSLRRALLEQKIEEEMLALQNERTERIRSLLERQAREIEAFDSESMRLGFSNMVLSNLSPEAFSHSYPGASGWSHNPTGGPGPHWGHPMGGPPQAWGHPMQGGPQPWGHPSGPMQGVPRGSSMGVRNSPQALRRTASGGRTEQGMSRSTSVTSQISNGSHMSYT
Method in brief: as §1

MST4 = MST4 (Homo sapiens, UniProt Q9P289); details: MST4, 0.5µM
Method in brief: as §1

CHK1 = molecular target: T2, CHK1 (Homo sapiens, UniProt O14757); details: CHK1, 0.5µM
T2 sequence (O14757 1-476): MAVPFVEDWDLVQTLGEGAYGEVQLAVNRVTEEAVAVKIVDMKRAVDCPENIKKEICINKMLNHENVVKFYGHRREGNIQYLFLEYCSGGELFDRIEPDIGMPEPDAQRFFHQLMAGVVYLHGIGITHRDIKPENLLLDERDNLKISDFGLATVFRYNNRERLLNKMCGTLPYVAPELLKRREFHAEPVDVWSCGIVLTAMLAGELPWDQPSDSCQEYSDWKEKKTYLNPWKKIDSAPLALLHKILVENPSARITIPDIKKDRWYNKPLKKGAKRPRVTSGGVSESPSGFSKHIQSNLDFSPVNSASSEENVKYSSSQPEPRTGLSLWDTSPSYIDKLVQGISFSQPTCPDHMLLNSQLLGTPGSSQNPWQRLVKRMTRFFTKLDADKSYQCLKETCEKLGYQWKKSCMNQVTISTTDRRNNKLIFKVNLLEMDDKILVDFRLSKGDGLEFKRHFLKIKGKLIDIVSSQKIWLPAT
Method in brief: as §1

PAK4 = PAK4 (Homo sapiens, UniProt O96013); details: PAK4, 0.5µM
Method in brief: as §1

CLK2 = CLK2 (Homo sapiens, UniProt P49760); details: CLK2, 0.5µM
Method in brief: as §1

[1] = 4hr RT preincubation, read-out: %Remaining activity at 0.5µM NU6300 - 4hr RT preincubation
[2] = usual format, read-out: %Remaining activity at 0.5µM NU6300 - Usual assay format

IRR, sequence (P14616 27-1297): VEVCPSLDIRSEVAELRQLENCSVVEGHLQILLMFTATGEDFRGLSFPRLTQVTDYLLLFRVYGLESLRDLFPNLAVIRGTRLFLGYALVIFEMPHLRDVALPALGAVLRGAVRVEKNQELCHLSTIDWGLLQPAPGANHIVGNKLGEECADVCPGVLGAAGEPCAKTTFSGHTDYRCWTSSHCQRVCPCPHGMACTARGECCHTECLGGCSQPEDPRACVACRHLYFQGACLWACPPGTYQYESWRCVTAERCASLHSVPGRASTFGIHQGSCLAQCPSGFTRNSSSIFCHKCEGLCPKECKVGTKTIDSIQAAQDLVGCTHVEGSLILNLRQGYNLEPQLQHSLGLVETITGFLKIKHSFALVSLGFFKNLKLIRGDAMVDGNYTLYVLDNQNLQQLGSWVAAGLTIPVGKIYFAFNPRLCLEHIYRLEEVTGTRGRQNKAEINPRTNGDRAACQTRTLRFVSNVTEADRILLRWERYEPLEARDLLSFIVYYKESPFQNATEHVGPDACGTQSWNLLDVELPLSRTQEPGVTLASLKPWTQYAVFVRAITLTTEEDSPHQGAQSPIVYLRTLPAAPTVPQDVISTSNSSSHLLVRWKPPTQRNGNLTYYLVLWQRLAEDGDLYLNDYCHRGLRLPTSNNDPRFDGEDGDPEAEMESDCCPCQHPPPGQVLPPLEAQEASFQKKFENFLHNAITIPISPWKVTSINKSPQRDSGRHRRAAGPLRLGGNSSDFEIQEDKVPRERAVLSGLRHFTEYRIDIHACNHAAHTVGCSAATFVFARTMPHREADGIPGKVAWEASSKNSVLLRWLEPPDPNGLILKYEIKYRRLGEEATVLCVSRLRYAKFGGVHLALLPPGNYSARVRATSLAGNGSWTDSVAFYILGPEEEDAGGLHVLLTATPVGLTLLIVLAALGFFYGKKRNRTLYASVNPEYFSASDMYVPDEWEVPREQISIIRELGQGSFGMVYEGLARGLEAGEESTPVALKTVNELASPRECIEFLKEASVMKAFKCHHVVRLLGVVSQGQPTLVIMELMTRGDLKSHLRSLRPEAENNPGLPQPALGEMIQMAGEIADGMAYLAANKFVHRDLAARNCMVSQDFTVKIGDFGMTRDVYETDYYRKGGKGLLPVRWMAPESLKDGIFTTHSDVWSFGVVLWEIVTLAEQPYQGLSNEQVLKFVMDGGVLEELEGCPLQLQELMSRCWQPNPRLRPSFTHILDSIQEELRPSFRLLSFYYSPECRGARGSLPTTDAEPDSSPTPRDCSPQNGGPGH
MST4, sequence (Q9P289 whole entry): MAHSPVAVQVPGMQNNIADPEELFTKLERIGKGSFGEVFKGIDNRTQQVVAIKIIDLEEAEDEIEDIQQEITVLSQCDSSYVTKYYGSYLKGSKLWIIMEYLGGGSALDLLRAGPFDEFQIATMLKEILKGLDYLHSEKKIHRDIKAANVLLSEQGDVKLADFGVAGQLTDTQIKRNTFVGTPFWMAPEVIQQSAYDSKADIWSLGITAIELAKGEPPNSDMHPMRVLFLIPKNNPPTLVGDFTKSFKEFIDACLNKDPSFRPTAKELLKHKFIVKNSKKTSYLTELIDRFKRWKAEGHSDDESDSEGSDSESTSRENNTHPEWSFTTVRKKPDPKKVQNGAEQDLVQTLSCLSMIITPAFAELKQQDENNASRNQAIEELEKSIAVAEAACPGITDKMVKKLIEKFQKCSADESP
CLK2, sequence (P49760 whole entry): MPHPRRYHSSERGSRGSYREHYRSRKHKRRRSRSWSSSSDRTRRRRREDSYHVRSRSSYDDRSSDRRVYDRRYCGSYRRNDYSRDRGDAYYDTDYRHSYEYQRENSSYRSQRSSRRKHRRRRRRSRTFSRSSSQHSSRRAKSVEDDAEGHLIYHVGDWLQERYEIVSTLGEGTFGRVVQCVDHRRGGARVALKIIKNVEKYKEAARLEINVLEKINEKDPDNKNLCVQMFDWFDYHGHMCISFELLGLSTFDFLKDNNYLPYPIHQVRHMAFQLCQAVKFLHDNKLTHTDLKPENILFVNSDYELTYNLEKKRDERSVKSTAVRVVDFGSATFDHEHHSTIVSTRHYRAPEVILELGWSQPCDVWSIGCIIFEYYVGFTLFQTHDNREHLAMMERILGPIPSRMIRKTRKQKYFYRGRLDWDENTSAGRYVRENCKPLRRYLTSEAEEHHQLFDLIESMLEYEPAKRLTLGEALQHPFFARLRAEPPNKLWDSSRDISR
PAK4, sequence (O96013 whole entry): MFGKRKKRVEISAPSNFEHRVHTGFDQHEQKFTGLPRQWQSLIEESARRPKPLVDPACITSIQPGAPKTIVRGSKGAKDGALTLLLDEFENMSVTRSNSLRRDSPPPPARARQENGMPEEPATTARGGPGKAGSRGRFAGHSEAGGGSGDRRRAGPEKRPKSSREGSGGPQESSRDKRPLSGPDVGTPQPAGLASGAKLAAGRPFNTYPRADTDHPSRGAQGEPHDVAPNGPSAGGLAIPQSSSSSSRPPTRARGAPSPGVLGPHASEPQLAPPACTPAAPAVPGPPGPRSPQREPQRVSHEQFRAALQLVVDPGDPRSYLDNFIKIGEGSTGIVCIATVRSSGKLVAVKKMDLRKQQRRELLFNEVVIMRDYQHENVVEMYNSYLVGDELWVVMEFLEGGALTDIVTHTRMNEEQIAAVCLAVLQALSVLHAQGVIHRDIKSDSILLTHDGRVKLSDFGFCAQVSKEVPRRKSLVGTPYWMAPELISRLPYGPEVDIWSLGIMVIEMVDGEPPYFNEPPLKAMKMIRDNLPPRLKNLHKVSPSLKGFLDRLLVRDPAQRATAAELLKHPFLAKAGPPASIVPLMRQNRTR
JNK3, sequence (P53779 whole entry): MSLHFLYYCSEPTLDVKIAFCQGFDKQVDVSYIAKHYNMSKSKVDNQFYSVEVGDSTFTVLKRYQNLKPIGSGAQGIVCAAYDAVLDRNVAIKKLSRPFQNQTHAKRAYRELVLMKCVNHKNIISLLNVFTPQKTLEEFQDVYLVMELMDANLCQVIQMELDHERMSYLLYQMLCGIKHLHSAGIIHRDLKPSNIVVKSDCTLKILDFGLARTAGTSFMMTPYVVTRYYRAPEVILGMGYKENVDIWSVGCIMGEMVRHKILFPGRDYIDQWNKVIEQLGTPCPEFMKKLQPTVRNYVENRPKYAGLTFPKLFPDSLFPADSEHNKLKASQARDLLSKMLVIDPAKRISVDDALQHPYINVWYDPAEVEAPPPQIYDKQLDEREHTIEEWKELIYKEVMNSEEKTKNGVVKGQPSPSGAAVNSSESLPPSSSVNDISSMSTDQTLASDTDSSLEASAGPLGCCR

C=CS(=O)(=O)c1ccc(Nc2nc(OCC3CCCCC3)c3nc[nH]c3n2)cc1 [NU6300, 6-(cyclohexylmethoxy)-N-(4-(vinylsulfonyl)phenyl)-9H-purin-2-amine]
remaining activity at 0.5 µM (IRR; [1]): 45% | remaining activity at 0.5 µM (IRR; [2]): 73% | remaining activity at 0.5 µM (JNK3; [1]): 98% | remaining activity at 0.5 µM (JNK3; [2]): 53% | remaining activity at 0.5 µM (TAO1; [1]): 20% | remaining activity at 0.5 µM (TAO1; [2]): 27% | remaining activity at 0.5 µM (MST4; [1]): 94% | remaining activity at 0.5 µM (MST4; [2]): 74% | remaining activity at 0.5 µM (CHK1; [1]): 42% | remaining activity at 0.5 µM (CHK1; [2]): 72% | remaining activity at 0.5 µM (PAK4; [1]): 82% | remaining activity at 0.5 µM (PAK4; [2]): 34% | remaining activity at 0.5 µM (CLK2; [1]): 104% | remaining activity at 0.5 µM (CLK2; [2]): 35%
